Results: patent US8222236B2, “2-methylene-(20E)-20(22)-dehydro-19-nor-vitamin D analogs” (Wisconsin Alumni Research Foundation, priority 2008, dated 2012)
pEC50, pKi: −log10 of the molar value. “Also recorded” adds a separate entry of the source.

Experiments:
[1] = system: intestinal calcium transport; assay: Intestinal calcium transport, everted gut sac method, vitamin D-deficient rats; type: in vivo, rat; conditions: FIG. 5; for intestinal calcium transport at 260 pmol/day, in words: ip, 4 consecutive days
Procedure: (§1) Male, weanling Sprague-Dawley rats were placed on Diet 11 (0.47% Ca) diet +AEK oil for one week followed by Diet 11 (0.02% Ca) +AEK oil for 3 weeks. The rats were then switched to a diet containing 0.47% Ca for one week followed by two weeks on a diet containing 0.02% Ca. Dose administration began during the last week on 0.02% calcium diet. Four consecutive ip doses were given approximately 24 hours apart. Twenty-four hours after the last dose, blood was collected from the severed neck and the concentration of serum calcium determined as a measure of bone calcium mobilization. The first 10 cm of the intestine was also collected for intestinal calcium transport analysis using the everted gut sac method.

HL-60 cells = assay: HL-60 cell differentiation (nitro blue tetrazolium reduction); type: cell-based, human; conditions: FIG. 2; for pEC50: HL-60 cells, 4 days
Procedure: The study drugs were dissolved in ethanol and the concentrations determined using UV spectrophotometry. Serial dilutions were prepared so that a range of drug concentrations could be tested without changing the final concentration of ethanol (≦0.2%) present in the cell cultures.
Human promyelocytic leukemia (HL60) cells were grown in RPMI-1640 medium containing 10% fetal bovine serum. The cells were incubated at 37° C. in the presence of 5% CO2.
HL60 cells were plated at 1.2×10^5 cells/ml. Eighteen hours after plating, cells in duplicate were treated with drug. Four days later, the cells were harvested and a nitro blue tetrazolium reduction assay was performed (Collins et al., 1979; J. Exp. Med. 149:969-974). The percentage of differentiated cells was determined by counting a total of 200 cells and recording the number that contained intracellular black-blue formazan deposits. Verification of differentiation to monocytic cells was determined by measuring phagocytic activity (data not shown).

[2] = system: bone calcium mobilization; assay: Bone calcium mobilization (serum calcium) in vitamin D-deficient rats; type: in vivo, rat; conditions: 0.02% Ca diet, FIG. 4
Procedure: as §1

[3] = system: 24-hydroxylase (24Ohase) gene promoter; assay: In vitro transcription assay, 24-hydroxylase gene promoter luciferase reporter in ROS 17/2.8 (bone) cells; type: cell-based; conditions: ROS 17/2.8 cells, 24-hydroxylase promoter-luciferase, 16 hours; FIG. 3; read-out: EC50, transcriptional activity in bone cells
Procedure: Transcription activity was measured in ROS 17/2.8 (bone) cells that were stably transfected with a 24-hydroxylase (24Ohase) gene promoter upstream of a luciferase reporter gene (Arbour et al., 1998). Cells were given a range of doses. Sixteen hours after dosing the cells were harvested and luciferase activities were measured using a luminometer.
RLU=relative luciferase units.

[4] = molecular target: T1, full-length recombinant rat vitamin D receptor (Rattus norvegicus, UniProt P13053); assay: Vitamin D receptor competitive binding with [3H]-1,25(OH)2D3; conditions: FIG. 1
T1 construct: Full-length recombinant rat receptor was expressed in E. coli BL21 (DE3) Codon Plus RIL cells; histidine tag (C); made in house; host or cells: E. coli BL21 (DE3) Codon Plus RIL
T1 sequence (P13053 1-423): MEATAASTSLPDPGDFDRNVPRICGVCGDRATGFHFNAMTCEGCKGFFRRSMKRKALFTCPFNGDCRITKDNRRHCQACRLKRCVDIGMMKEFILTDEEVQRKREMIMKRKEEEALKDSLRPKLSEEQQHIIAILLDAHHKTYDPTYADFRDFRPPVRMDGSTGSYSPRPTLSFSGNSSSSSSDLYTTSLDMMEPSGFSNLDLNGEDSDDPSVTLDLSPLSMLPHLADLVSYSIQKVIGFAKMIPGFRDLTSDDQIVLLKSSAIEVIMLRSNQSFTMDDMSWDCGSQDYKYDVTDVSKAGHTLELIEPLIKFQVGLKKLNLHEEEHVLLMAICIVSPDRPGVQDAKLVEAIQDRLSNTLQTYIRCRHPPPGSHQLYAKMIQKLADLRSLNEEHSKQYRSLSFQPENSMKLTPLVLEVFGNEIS
Procedure: Full-length recombinant rat receptor was expressed in E. coli BL21 (DE3) Codon Plus RIL cells and purified to homogeneity using two different column chromatography systems. The first system was a nickel affinity resin that utilizes the C-terminal histidine tag on this protein. The protein that was eluted from this resin was further purified using ion exchange chromatography (S-Sepharose Fast Flow). Aliquots of the purified protein were quick frozen in liquid nitrogen and stored at −80° C. until use. For use in binding assays, the protein was diluted in TEDK50 (50 mM Tris, 1.5 mM EDTA, pH7.4, 5 mM DTT, 150 mM KCl) with 0.1% Chaps detergent. The receptor protein and ligand concentration were optimized such that no more than 20% of the added radiolabeled ligand was bound to the receptor.
Radiolabeled and unlabeled ligands were added to 100 mcl of the diluted protein at a final ethanol concentration of ≦10%, mixed and incubated overnight on ice to reach binding equilibrium. The following day, 100 mcl of hydroxylapatite slurry (50%) was added to each tube and mixed at 10-minute intervals for 30 minutes. The hydroxylapaptite was collected by centrifugation and then washed three times with Tris-EDTA buffer (50 mM Tris, 1.5 mM EDTA, pH 7.4) containing 0.5% Titron X-100. […] Total binding was determined from the tubes containing only radiolabeled ligand.

pEC50 [3] | pEC50 (HL-60 cells; Homo sapiens, 96 h) | VDR binding affinity compared to 1,25(OH)2D3 [4] | pKi ([4]; full-length recombinant rat VDR, read-out: Ki, competition with [3H]-1,25(OH)2D3 for binding to the vitamin D receptor) | SMILES | intestinal calcium transport at 260 pmol/day, in words [1] | pEC50 (HL-60 cells) | bone calcium mobilization activity (serum calcium), in words [2] | dose giving the same mobilization of bone calcium ([2]; ip, 4 consecutive days) [pmol/day] | intestinal calcium transport activity, in words ([1]; vitamin D-deficient rats) | potency on HL-60 cell differentiation relative to 1,25(OH)2D3 (HL-60 cells) [times] | dose at which any substantial effect on bone calcium mobilization was seen ([2]; ip, 4 consecutive days) [pmol/day]
– | – | – | – | C=C1/C(=C\C=C2/CCC[C@]3(C)[C@@H]([C@H](C)CCCC(C)(C)O)CC[C@@H]23)C[C@@H](O)C[C@@H]1O [1,25(OH)2D3, 1α,25-dihydroxyvitamin D3, reference compound] | significant increase | 8.70 | increased serum calcium levels at all dosages | 87 | – | – | –
10.70 | 9.10 | bound with the same affinity | 10.00 | C=C1[C@H](O)CC(=C/C=C2\CCC[C@]3(C)[C@@H](/C(C)=C/CCC(C)(C)O)CC[C@@H]23)C[C@H]1O [Vit III 20-22E, 2-methylene-(20E)-20(22)-dehydro-19-nor-1α,25-dihydroxyvitamin D3] | promotes intestinal calcium transport | – | less bone calcium mobilization activity; also recorded: relatively low, or little, activity in mobilizing calcium from bone | 780 | about the same activity; also recorded: about the same as or equal to 1,25(OH)2D3 | 3 to 4 | 7020
